From US20230158005A1 (priority 2020, published 2023)
Values joined by “and” are separate entries in the source; they are usually repeats but may differ in a detail not shown here. Equal entries are not always repeated.

Columns and labels:
[1] = tested on: A/New Caledonia/20/1999 (H1N1); assay type: cell-based, influenza A virus
[2] = tested on: A/California/02/2014 (H3N2); assay type: cell-based, influenza A virus; for Virus titer, replicates 1-3: test concentration or dose not given here
[3] = tested on: A/Puerto Rico/8/1934 (H1N1); assay type: cell-based, influenza A virus
[4] = tested on: A/Hong Kong/156/1997 (H5N1); assay type: cell-based, influenza A virus
A/Texas/71/2007 (H3N2) = assay type: cell-based, influenza A virus
A/USSR/90/1977 (H1N1) = assay type: cell-based, influenza A virus
[5] = tested on: A/Solomon Islands/03/2006 (H1N1); assay type: cell-based, influenza A virus
[6] = tested on: A/Minnesota/19/2011 (H1N1); assay type: cell-based, influenza A virus
A/Anhui/1/2013 (H7N9) = assay type: cell-based, influenza A virus
A/Indiana/08/2011 (H3N2) = assay type: cell-based, influenza A virus
A/Hawaii/15/2001 (H1N1) = assay type: cell-based, influenza A virus; for Virus titer, replicates 1-3: test concentration or dose not given here
[7] = tested on: A/Indonesia/05/2005 (H5N1); assay type: cell-based, influenza A virus; for Virus titer, replicates 1-3: test concentration or dose not given here
[8] = tested on: A/New Jersey/8/1976 (H1N1); assay type: cell-based, influenza A virus
[9] = tested on: A/California/07/2009 (H1N1); assay type: cell-based, influenza A virus
A/Perth/16/2009 (H3N2) = assay type: cell-based, influenza A virus
A/Fujian/413/2002 (H3N2) = assay type: cell-based, influenza A virus
[10] = tested on: A549 human lung carcinoma cells
A/Alaska/140/2015 (H3N2) = assay type: cell-based, influenza A virus; for Virus titer, replicates 1-3: test concentration or dose not given here
[11] = tested on: A/Vietnam/1203/2004 (H5N1); assay type: cell-based, influenza A virus
[12] = tested on: A/Egypt/N6658/2011 (H5N1); assay type: cell-based, influenza A virus

In the case of `CCOC(=O)C1=C[C@@H](OC(CC)CC)[C@H](NC(C)=O)[C@@H](N)C1` [Oseltamivir, oseltamivir, reference compound], the “DIF (Difference from Control)” value [1] is reported as -5.67 log10TCID50/mL, the “Virus titer AVG” value [1] is reported as 1.50 log10TCID50/mL and the “Virus titer, replicates 1-3” value [1] is reported as 1.50 log10TCID50/mL. The “DIF (Difference from Control)” value [2] was -1.58 log10TCID50/mL, the “Virus titer AVG” value [2] was 4.92 log10TCID50/mL and the “Virus titer, replicates 1-3” value [2] was 5.25 log10TCID50/mL and 4.75 log10TCID50/mL (2×). For the same molecule, the “DIF (Difference from Control)” value [3] was -2.25 log10TCID50/mL, the “Virus titer AVG” value [3] was 3.25 log10TCID50/mL and the “Virus titer, replicates 1-3” value [3] was 3.75 log10TCID50/mL and 3.25 log10TCID50/mL and 2.75 log10TCID50/mL. For the same molecule, the “DIF (Difference from Control)” value [4] was -3.08 log10TCID50/mL, the “Virus titer AVG” value [4] was 1.50 log10TCID50/mL and the “Virus titer, replicates 1-3” value [4] was 1.50 log10TCID50/mL. For the same molecule, the “DIF (Difference from Control)” value (A/Texas/71/2007 (H3N2)) was -0.83 log10TCID50/mL, the “Virus titer AVG” value (A/Texas/71/2007 (H3N2)) was 4.00 log10TCID50/mL and the “Virus titer, replicates 1-3” value (A/Texas/71/2007 (H3N2)) was 3.50 log10TCID50/mL and 4.75 log10TCID50/mL and 3.75 log10TCID50/mL. For the same molecule, the “DIF (Difference from Control)” value (A/USSR/90/1977 (H1N1)) was -4.33 log10TCID50/mL, the “Virus titer AVG” value (A/USSR/90/1977 (H1N1)) was 2.42 log10TCID50/mL and the “Virus titer, replicates 1-3” value (A/USSR/90/1977 (H1N1)) was 2.50 log10TCID50/mL (2×) and 2.25 log10TCID50/mL. For the same molecule, the “DIF (Difference from Control)” value [5] was -4.25 log10TCID50/mL, the “Virus titer AVG” value [5] was 3.25 log10TCID50/mL and the “Virus titer, replicates 1-3” value [5] was 3.75 log10TCID50/mL and 3.25 log10TCID50/mL and 2.75 log10TCID50/mL. The “DIF (Difference from Control)” value [6] was -7.33 log10TCID50/mL, the “Virus titer AVG” value [6] was 1.50 log10TCID50/mL and the “Virus titer, replicates 1-3” value [6] was 1.50 log10TCID50/mL. For the same molecule, the “DIF (Difference from Control)” value (A/Anhui/1/2013 (H7N9)) was -2.25 log10TCID50/mL, the “Virus titer AVG” value (A/Anhui/1/2013 (H7N9)) was 1.50 log10TCID50/mL and the “Virus titer, replicates 1-3” value (A/Anhui/1/2013 (H7N9)) was 1.50 log10TCID50/mL. For the same molecule, the “DIF (Difference from Control)” value (A/Indiana/08/2011 (H3N2)) was -5.08 log10TCID50/mL, the “Virus titer AVG” value (A/Indiana/08/2011 (H3N2)) was 3.25 log10TCID50/mL and the “Virus titer, replicates 1-3” value (A/Indiana/08/2011 (H3N2)) was 2.75 log10TCID50/mL and 3.75 log10TCID50/mL and 3.25 log10TCID50/mL. For the same molecule, the “DIF (Difference from Control)” value (A/Hawaii/15/2001 (H1N1)) was -1.92 log10TCID50/mL, the “Virus titer AVG” value (A/Hawaii/15/2001 (H1N1)) was 2.67 log10TCID50/mL and the “Virus titer, replicates 1-3” value (A/Hawaii/15/2001 (H1N1)) was 2.75 log10TCID50/mL (2×) and 2.50 log10TCID50/mL. For the same molecule, the “DIF (Difference from Control)” value [7] was -3.50 log10TCID50/mL, the “Virus titer AVG” value [7] was 4.58 log10TCID50/mL and the “Virus titer, replicates 1-3” value [7] was 4.75 log10TCID50/mL and 4.50 log10TCID50/mL (2×). For the same molecule, the “DIF (Difference from Control)” value [8] was -3.58 log10TCID50/mL, the “Virus titer AVG” value [8] was 1.50 log10TCID50/mL and the “Virus titer, replicates 1-3” value [8] was 1.50 log10TCID50/mL. For the same molecule, the “DIF (Difference from Control)” value [9] was -3.00 log10TCID50/mL, the “Virus titer AVG” value [9] was 2.58 log10TCID50/mL and the “Virus titer, replicates 1-3” value [9] was 2.75 log10TCID50/mL and 2.50 log10TCID50/mL (2×). For the same molecule, the “DIF (Difference from Control)” value (A/Perth/16/2009 (H3N2)) was 0.00 log10TCID50/mL, the “Virus titer AVG” value (A/Perth/16/2009 (H3N2)) was 4.25 log10TCID50/mL and the “Virus titer, replicates 1-3” value (A/Perth/16/2009 (H3N2)) was 4.25 log10TCID50/mL. The “DIF (Difference from Control)” value (A/Fujian/413/2002 (H3N2)) was -0.58 log10TCID50/mL, the “Virus titer AVG” value (A/Fujian/413/2002 (H3N2)) was 2.75 log10TCID50/mL and the “Virus titer, replicates 1-3” value (A/Fujian/413/2002 (H3N2)) was 3.25 log10TCID50/mL and 2.50 log10TCID50/mL (2×). The “% Dif (absorbance as percent relative to the vehicle control, relative viability)” value [10] was 83.88%, the “DIF (Difference from Control)” value (A/Alaska/140/2015 (H3N2)) was -3.83 log10TCID50/mL and the “Virus titer AVG” value (A/Alaska/140/2015 (H3N2)) was 2.92 log10TCID50/mL. For the same molecule, the “Virus titer, replicates 1-3” value (A/Alaska/140/2015 (H3N2)) was 2.50 log10TCID50/mL (2×) and 3.75 log10TCID50/mL, the “DIF (Difference from Control)” value [11] was -2.75 log10TCID50/mL and the “Virus titer AVG” value [11] was 5.17 log10TCID50/mL. The “Virus titer, replicates 1-3” value [11] was 5.25 log10TCID50/mL and 5.50 log10TCID50/mL and 4.75 log10TCID50/mL, the “DIF (Difference from Control)” value [12] was -3.25 log10TCID50/mL and the “Virus titer AVG” value [12] was 2.08 log10TCID50/mL. For the same molecule, the “Virus titer, replicates 1-3” value [12] was 2.25 log10TCID50/mL and 1.50 log10TCID50/mL and 2.50 log10TCID50/mL.
